# Columns and labels:
# [1] = system: U87 and U373 human glioma cell lines; details: cited from earlier work
# [2] = system: U87 human glioma cells subcutaneously implanted to nude mice; details: cited from earlier work
# [3] = system: glioma cell lines T98G, U87MG and GL261; experiment: Clonogenic cell survival assay after irradiation (radiosensitivity of glioma cell lines); type: cell-based, human (T98G, U87MG); mouse (GL261); details: pure phytocannabinoid used alone, increasing concentrations, 24 h prior to irradiation (0, 1, 2 and 5 Gy, Cs137); FIG. 2 / FIG. 3
# Experimental: The human glioma cell lines T98G and U87MG were obtained from ATCC, and were lines derived from patients with a glioblastoma multiforme tumour and a glioblastoma astrocytoma respectively.
# The mouse glioma cell line GL261, which is syngeneic to the C57BL/6 mouse was acquired from the NCI.
# Cells were exposed to increasing doses of irradiation and then clonogenic cell survival assays were performed. The ability of the cells to survive an irradiation insult and go on and divide indefinitely forming a colony was assessed in this manner and used as our read-out of radiosensitivity.
# (§1) Cells were initially seeded into flasks and left to adhere overnight. […] Cells were then harvested, counted and seeded again at increasing densities in 6-well plates, adjusting the density appropriately for the radiation dose, and then incubated for approximately 14 days. […] Colonies consisting of >50 cells were counted and calculated as a proportion of the number of cells initially seeded (surviving fraction). […]
# as §1, with “surviving fraction was calculated.” for “calculated as a proportion of the number of cells initially seeded (surviving fraction).”
SMILES,anti-proliferative effects in-vitro [1],anti-proliferative effects in-vivo [2],effect on radiosensitivity (surviving fraction) [3]
"C=C(C)[C@@H]1CCC(C)=C[C@H]1c1c(O)cc(CCCCC)cc1O [CBD, Cannabidiol]",anti-proliferative effects,anti-proliferative effects,did not appear to alter the radiosensitivity
"CCCCCc1cc(O)c2c(c1)OC(C)(C)[C@@H]1CCC(C)=C[C@@H]21 [THC, Tetrahydrocannabinol]",,,did not appear to alter the radiosensitivity

# Reference: patent publication US20160136127A1, “USE OF TETRAHYDROCANNABINOL AND/OR CANNABIDIOL FOR INCREASING RADIOSENSITVITY IN THE TREATMENT OF A BRAIN TUMOUR” (GW PHARMA LIMITED, priority 2013, published 2016)
